Experimental data taken from patent US5861426A, “Nitro compounds of the formula A-Xi -NO2 and their compositions having anti-inflammatory, analgesic and anti-thrombotic activities” (Nicox S.A., priority 1994, dated 1999).
Where two headings read alike, the source gives them in different places.

Key:
carrageenin-oedema = assay: Anti-inflammatory activity, carrageenin-oedema method; type: in vivo; details: rats, oral 3 to 30 mg/Kg in carboxymethylcellulose; natural product = 1.0
Protocol: (§6) Study of the anti-inflammatory (I) and analgesic (II) properties (pharmacodynamics) and gastrointestinal tolerance (III) (toxicity) of the test compounds after oral administration of doses ranging from 3 to 30 mg/Kg in carboxymethylcellulose suspensions and constructing dose-responsecurves. […] Activities are expressed as the potency ratio compared to the natural product used as a unit standard.

Swiss mice = assay: Analgesic activity (Hendershot et al.); type: in vivo; details: oral 3 to 30 mg/Kg in carboxymethylcellulose, natural product = 1.0
Protocol: as §6

gastropathy = assay: Gastric tolerance, severity of induced gastropathy; details: rats, oral 3 to 30 mg/Kg in carboxymethylcellulose; natural product = 1.0
Protocol: Gastric tolerance was measured by oral administration to rats assessing the severity of the gastropathy induced in accordance with the criteria described by Wallace et al. (Am. J. Physiol. 259, G642, 1990).
Study of the anti-inflammatory (I) and analgesic (II) properties (pharmacodynamics) and gastrointestinal tolerance (III) (toxicity) of the test compounds after oral administration of doses ranging from 3 to 30 mg/Kg in carboxymethylcellulose suspensions and constructing dose-responsecurves.
Activities are expressed as the potency ratio compared to the natural product used as a unit standard. The nitroderivative is that of the shown examples, the natural reference compound is that shown as a reference.

[1] = system: human platelets stimulated by thrombin; assay: Platelet anti-aggregating activity in vitro; type: cell-based; details: 10^-5 to 10^-7 molar range, natural product = 1.0
Text: (§1) Example of the anti-cyclooxygenase (I), platelet anti-aggregating (II) and vasodilative (III) properties of the test compounds tested in vitro at concentrations in the molar range from 10^-5 to 10^-7 of the product in water/alcohol with the addition of small amounts of DMSO (dimethylsulphoxide). The activities are expressed as the potency ratio versus the natural product used as a unit standard, as stated in Table

isolated rat aorta = assay: Vasodilative activity, inhibition of contraction induced by epinephrine; details: in vitro, 10^-5 to 10^-7 molar range
Text: as §1

cyclo-oxygenase = assay: Anti-cyclooxygenase activity; type: cell-based
Protocol: (§2) The activity inhibiting cyclo-oxygenase was determined in isolated cells. Endothelial cells of bovine aorta were used as a source of COX-1 and macrophage line J774.2 as a source of COX-2. The same conditions described by Mitchell et al. (Proc. Nat. Acad. Sci. 90, 11693, 1993) for growth and the viability test were used.
(§3) In brief, the cells were incubated for 30 minutes with scalar concentrations of the test product and the substrate (arachidonic acid) was then added and incubated for another 15 minutes. Enzyme activity was determined radioimmunologically by measuring the formation of 6-keto-PGF 1 alpha. In the case of cell lines J.774.2, the cells were incubated for 12 hours with endotoxin to promote COX-2 formation.
as §1

COX-1 = biological target: T1, COX-1 (Bos taurus, UniProt O62664); assay: COX-1 inhibition in isolated cells; type: cell-based, bovine; details: read-out: COX-1 response, % of the controls with response variability
T1 construct: Endothelial cells of bovine aorta were used as a source of COX-1; endogenous in cells; host or cells: bovine aortic endothelial cells
T1 sequence (O62664 25-600): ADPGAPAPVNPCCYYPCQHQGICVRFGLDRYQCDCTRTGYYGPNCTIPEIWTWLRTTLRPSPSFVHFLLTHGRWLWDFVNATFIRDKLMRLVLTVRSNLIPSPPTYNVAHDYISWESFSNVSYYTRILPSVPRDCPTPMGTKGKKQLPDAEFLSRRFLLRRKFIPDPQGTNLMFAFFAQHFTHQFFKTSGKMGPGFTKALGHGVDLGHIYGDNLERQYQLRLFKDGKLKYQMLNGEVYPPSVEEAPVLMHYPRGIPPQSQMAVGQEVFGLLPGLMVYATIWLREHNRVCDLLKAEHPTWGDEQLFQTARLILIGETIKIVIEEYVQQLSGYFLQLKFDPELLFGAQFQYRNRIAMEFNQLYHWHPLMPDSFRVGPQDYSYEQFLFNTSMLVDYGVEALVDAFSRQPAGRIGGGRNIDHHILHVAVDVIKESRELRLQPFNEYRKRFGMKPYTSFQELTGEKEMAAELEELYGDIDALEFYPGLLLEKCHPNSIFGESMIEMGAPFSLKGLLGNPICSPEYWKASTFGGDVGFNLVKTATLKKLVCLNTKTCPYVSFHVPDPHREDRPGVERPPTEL
Protocol: as §2, §3
(§4) Study of the anti-cyclooxygenase (COX-1/COX-2) properties in isolated cells.
(§5) Response expressed as a % of the controls with relative response variability.

COX-2 = biological target: T2, COX-2 (Mus musculus, UniProt Q05769); assay: COX-2 inhibition in isolated cells; type: cell-based
T2 construct: endogenous in cells; host or cells: J774.2 macrophages, 12 h with endotoxin
T2 sequence (Q05769 18-604): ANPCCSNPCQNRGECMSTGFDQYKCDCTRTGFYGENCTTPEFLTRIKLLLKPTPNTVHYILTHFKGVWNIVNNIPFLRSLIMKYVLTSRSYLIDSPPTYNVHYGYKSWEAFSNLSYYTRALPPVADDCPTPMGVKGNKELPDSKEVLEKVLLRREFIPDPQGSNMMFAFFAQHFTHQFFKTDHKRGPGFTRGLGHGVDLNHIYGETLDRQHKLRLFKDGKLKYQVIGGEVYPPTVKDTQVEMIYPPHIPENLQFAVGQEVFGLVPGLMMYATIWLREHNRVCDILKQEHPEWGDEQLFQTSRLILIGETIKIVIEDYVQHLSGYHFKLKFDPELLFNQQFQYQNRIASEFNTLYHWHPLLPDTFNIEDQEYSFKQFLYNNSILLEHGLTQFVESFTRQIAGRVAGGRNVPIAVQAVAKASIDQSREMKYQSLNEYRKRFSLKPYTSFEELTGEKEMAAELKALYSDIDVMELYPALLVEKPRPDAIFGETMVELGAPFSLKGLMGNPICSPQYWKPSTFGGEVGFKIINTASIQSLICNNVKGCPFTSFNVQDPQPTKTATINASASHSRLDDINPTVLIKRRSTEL
Protocol: as §2, §3, §4, §5

nitrosynthetase (NOS) = assay: Nitrosynthetase (NOS) activity induced by LPS in rats; type: in vivo, rat; details: oral, LPS only = 100
Protocol: The nitrosynthetase inhibition activity induced by lipopolysaccharide (LPS) was determined in rat neutrophils and stomach after administration of one of the test compounds and compared with that obtained after treatment of the suspension vehicle only.
In brief, Wistar rats fasting for 24 hours before treatment were orally administered the test product (10 mg/Kg) and intravenously (caudal vein) administered LPS (5 mg/Kg).
Four hours later the animals were sacrificed and the blood--for neutrophils isolation--and the stomach taken.
Enzyme activity was determined in accordance with the method described by Assreuy et al. (Br. J. Pharmacol. 108, 833, 1993).
Study of the inhibitory properties of the nitrosynthetase (NOS) activity induced by liposaccharide (LPS) in rats using oral doses ranging from 5 to 20 mg/Kg suspended in a carboxymethylcellulose base.

gastric mucous membrane = assay: Gastric irritation of Tween 80 / dimethylsulphoxide suspensions; type: in vivo; details: suspension with Tween 80 and dimethylsulphoxide (0.1% and 1% for nitroxybutylflurbiprofen; lower amounts for NO-flurbiprofen derivative)
[2] = J774.2, read-out: COX-2 response, % of the controls with response variability

Row | Compound | anti-inflammatory properties (I), potency ratio versus natural reference product (carrageenin-oedema) | analgesic properties (II), potency ratio versus natural reference product (Swiss mice) | gastrointestinal tolerance (III) (toxicity), potency ratio versus natural reference product (gastropathy) | platelet anti-aggregating (II), potency ratio versus natural product [1] | vasodilative (III), % of inhibitory action of the vasospasm induced by epinephrine (isolated rat aorta) [%] | direct inhibition of cyclo-oxygenase COX-1 and COX-2 (cyclo-oxygenase; Table 4 data) | anti-cyclooxygenase (I), potency ratio versus natural product (cyclo-oxygenase; in vitro, 10^-5 to 10^-7 molar range, natural product = 1.0) | remaining activity at 100 µg/mL (COX-1; 0.1 mg/ml, endothelial cells of bovine aorta) [%] | remaining activity at 1000 µg/mL (COX-1; 1.0 mg/ml, endothelial cells of bovine aorta) [%] | remaining activity at 100 µg/mL (COX-2; 0.1 mg/ml, macrophage line J774.2 with endotoxin, read-out: COX-2 response, % of the controls with response variability) [%] | remaining activity at 1000 µg/mL (COX-2; 1.0 mg/ml, macrophage line J774.2 with endotoxin, read-out: COX-2 response, % of the controls with response variability) [%] | NOS, neutrophils; inhibition relative to the group treated with LPS only (nitrosynthetase (NOS); neutrophils) | NOS, stomach; inhibition relative to the group treated with LPS only (nitrosynthetase (NOS); stomach) | remaining activity at 100 µg/mL (COX-1) [%] | remaining activity at 1000 µg/mL (COX-1) [%] | remaining activity at 100 µg/mL (COX-2; [2]) [%] | remaining activity at 1000 µg/mL (COX-2; [2]) [%] | irritant effect on gastric mucous membrane (gastric mucous membrane)
1 | O=C(Cc1ccccc1Nc1c(Cl)cccc1Cl)OCCOCCO[N+](=O)[O-] [Example 1b, 2-{N-[2,6-(dichloro)phenyl]amino}phenylacetate of 2-[2-(nitroxy)ethoxy]ethyl] | 1.3 | 0.9 | 0.3 | 1.8 | 50 | capable of directly inhibiting cyclo-oxygenase COX-1 and COX-2 | 1.8 | 49 ± 6 | 29 ± 4 | 45 ± 3 | 22 ± 4 | 52 | 40 | – | – | – | – | –
2 | CC(C(=O)OCCCCO[N+](=O)[O-])c1ccc(-c2ccccc2)c(F)c1 (stereo not drawn) [FLURBIPROFEN NITROXYBUTYLESTER] | – | – | – | – | – | – | – | – | – | – | – | – | – | 48 ± 18 | 29 ± 13 | 46 ± 23 | 22 ± 14 | irritant to the gastric mucous membrane
